Data on 15 compounds can be found in ChEMBL document CHEMBL5442219.

Conditions in all cases: Compound concentration 10 µM
The target of assay [1] is T1, Alpha-2C adrenergic receptor (Homo sapiens) (UniProt P18825).
T1 sequence (whole entry): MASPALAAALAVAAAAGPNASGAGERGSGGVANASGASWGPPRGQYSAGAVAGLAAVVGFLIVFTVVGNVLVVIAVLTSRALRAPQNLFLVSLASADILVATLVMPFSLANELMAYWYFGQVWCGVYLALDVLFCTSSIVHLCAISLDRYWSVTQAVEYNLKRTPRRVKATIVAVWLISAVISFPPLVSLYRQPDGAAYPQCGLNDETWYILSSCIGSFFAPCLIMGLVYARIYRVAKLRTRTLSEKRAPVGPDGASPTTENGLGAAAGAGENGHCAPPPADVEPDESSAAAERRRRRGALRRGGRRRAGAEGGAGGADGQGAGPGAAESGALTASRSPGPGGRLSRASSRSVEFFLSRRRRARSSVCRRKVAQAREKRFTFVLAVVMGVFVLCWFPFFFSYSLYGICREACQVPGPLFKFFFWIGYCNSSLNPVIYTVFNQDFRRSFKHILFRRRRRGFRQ
Description: PDSP Primary Binding target: ADRA2C - Compounds are tested at 10 uM concentration, plate are incubated at room temperature in the dark for 90 minutes. Reaction are stopped by vacuum filtration onto 0.3% polyethyleneimine soaked filter mats using Filtermate harvester. Scintilation cocktail is then melted onto microwave-dried filters on a hot plate and the radio activity is counted in Microbia counter.

Assay [2] addresses Beta-1 adrenergic receptor (Homo sapiens) (UniProt P08588).
Description: PDSP Primary Binding target: ADRB1 - Compounds are tested at 10 uM concentration, plate are incubated at room temperature in the dark for 90 minutes. Reaction are stopped by vacuum filtration onto 0.3% polyethyleneimine soaked filter mats using Filtermate harvester. Scintilation cocktail is then melted onto microwave-dried filters on a hot plate and the radio activity is counted in Microbia counter.
For assay [3], the target named is 5-hydroxytryptamine receptor 6 (Homo sapiens) (UniProt P50406).
5-hydroxytryptamine receptor 6 (Homo sapiens), sequence (P50406 whole entry): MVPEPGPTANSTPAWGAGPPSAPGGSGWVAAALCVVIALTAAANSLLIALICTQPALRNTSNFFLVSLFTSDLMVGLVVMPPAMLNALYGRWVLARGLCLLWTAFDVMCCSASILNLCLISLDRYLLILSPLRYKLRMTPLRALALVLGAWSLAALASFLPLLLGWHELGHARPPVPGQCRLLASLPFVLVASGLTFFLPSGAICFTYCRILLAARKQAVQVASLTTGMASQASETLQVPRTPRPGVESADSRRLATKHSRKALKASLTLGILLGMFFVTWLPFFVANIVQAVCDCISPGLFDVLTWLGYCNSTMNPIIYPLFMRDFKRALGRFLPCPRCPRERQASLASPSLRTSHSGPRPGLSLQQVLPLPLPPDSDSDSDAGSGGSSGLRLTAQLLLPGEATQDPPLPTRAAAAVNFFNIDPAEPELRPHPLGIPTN
Description: PDSP Primary Binding target: HTR6 - Compounds are tested at 10 uM concentration, plate are incubated at room temperature in the dark for 90 minutes. Reaction are stopped by vacuum filtration onto 0.3% polyethyleneimine soaked filter mats using Filtermate harvester. Scintilation cocktail is then melted onto microwave-dried filters on a hot plate and the radio activity is counted in Microbia counter.
Assay [4] deals with Sodium-dependent noradrenaline transporter (Homo sapiens) (UniProt P23975).
Sodium-dependent noradrenaline transporter (Homo sapiens), sequence (P23975 whole entry): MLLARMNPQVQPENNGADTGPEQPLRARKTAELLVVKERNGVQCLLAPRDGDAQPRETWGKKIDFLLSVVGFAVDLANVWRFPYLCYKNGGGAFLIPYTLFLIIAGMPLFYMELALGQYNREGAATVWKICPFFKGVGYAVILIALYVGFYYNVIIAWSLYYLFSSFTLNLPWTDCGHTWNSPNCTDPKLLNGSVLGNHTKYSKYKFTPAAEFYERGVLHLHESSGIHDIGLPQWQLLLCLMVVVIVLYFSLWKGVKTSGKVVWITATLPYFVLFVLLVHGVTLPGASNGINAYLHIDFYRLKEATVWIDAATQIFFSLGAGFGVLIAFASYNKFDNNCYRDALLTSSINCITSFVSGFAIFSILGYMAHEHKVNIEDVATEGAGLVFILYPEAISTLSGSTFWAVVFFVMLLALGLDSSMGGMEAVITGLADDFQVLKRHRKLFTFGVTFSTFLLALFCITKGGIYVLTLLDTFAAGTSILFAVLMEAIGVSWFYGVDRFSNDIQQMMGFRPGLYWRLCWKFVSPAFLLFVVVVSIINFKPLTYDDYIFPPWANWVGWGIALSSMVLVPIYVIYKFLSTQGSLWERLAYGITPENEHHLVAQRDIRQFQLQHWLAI
Description: PDSP Primary Binding target: SLC6A2 - Compounds are tested at 10 uM concentration, plate are incubated at room temperature in the dark for 90 minutes. Reaction are stopped by vacuum filtration onto 0.3% polyethyleneimine soaked filter mats using Filtermate harvester. Scintilation cocktail is then melted onto microwave-dried filters on a hot plate and the radio activity is counted in Microbia counter.
The target in assay [5] is Translocator protein (Homo sapiens) (UniProt P30536).
Translocator protein (Homo sapiens), sequence (P30536 whole entry): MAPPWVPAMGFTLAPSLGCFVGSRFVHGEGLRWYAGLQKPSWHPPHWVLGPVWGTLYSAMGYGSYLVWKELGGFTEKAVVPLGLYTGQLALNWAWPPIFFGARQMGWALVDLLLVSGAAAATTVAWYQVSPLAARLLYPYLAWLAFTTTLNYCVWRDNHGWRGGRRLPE
Description: PDSP Primary Binding target: TSPO - Compounds are tested at 10 uM concentration, plate are incubated at room temperature in the dark for 90 minutes. Reaction are stopped by vacuum filtration onto 0.3% polyethyleneimine soaked filter mats using Filtermate harvester. Scintilation cocktail is then melted onto microwave-dried filters on a hot plate and the radio activity is counted in Microbia counter.
For assay [6], the target named is T2, Alpha-2B adrenergic receptor (Homo sapiens) (UniProt P18089).
T2 sequence (whole entry): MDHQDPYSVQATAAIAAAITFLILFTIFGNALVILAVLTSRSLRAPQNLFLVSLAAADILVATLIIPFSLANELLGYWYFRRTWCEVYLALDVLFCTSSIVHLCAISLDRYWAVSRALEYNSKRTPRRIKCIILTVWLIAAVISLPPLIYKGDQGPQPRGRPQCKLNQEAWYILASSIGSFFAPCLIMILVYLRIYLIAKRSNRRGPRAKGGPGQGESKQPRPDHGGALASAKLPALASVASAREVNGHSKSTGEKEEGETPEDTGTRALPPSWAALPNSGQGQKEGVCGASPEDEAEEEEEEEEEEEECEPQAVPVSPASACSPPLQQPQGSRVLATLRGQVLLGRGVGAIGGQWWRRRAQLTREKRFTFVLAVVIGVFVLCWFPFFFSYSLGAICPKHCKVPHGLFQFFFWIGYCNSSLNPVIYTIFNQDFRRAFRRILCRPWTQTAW
Description: PDSP Primary Binding target: ADRA2B - Compounds are tested at 10 uM concentration, plate are incubated at room temperature in the dark for 90 minutes. Reaction are stopped by vacuum filtration onto 0.3% polyethyleneimine soaked filter mats using Filtermate harvester. Scintilation cocktail is then melted onto microwave-dried filters on a hot plate and the radio activity is counted in Microbia counter.

Assay [7] has as its target Histamine H3 receptor (Homo sapiens) (UniProt Q9Y5N1).
Description: PDSP Primary Binding target: HRH3 - Compounds are tested at 10 uM concentration, plate are incubated at room temperature in the dark for 90 minutes. Reaction are stopped by vacuum filtration onto 0.3% polyethyleneimine soaked filter mats using Filtermate harvester. Scintilation cocktail is then melted onto microwave-dried filters on a hot plate and the radio activity is counted in Microbia counter.
The target in assay [8] is 5-hydroxytryptamine receptor 1E (Homo sapiens) (UniProt P28566).
5-hydroxytryptamine receptor 1E (Homo sapiens), sequence (P28566 whole entry): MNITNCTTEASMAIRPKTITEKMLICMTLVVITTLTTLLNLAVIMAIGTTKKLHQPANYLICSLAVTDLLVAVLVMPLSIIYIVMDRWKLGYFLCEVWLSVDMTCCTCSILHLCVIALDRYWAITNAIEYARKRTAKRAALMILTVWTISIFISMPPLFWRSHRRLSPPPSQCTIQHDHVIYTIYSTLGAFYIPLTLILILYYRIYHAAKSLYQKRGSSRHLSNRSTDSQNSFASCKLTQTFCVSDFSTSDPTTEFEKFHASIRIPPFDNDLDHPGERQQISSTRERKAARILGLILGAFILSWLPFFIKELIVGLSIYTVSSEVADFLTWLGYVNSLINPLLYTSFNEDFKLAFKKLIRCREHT
Description: PDSP Primary Binding target: HTR1E - Compounds are tested at 10 uM concentration, plate are incubated at room temperature in the dark for 90 minutes. Reaction are stopped by vacuum filtration onto 0.3% polyethyleneimine soaked filter mats using Filtermate harvester. Scintilation cocktail is then melted onto microwave-dried filters on a hot plate and the radio activity is counted in Microbia counter.
The target of assay [9] is Sigma non-opioid intracellular receptor 1 (Homo sapiens) (UniProt Q99720).
Sigma non-opioid intracellular receptor 1 (Homo sapiens), sequence (Q99720 whole entry): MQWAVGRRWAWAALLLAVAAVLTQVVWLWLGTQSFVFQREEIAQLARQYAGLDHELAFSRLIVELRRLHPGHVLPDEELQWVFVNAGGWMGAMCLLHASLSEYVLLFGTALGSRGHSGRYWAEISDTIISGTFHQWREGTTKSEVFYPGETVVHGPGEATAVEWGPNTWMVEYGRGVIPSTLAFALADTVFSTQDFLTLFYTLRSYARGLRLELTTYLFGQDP
Description: PDSP Primary Binding target: SIGMAR1 - Compounds are tested at 10 uM concentration, plate are incubated at room temperature in the dark for 90 minutes. Reaction are stopped by vacuum filtration onto 0.3% polyethyleneimine soaked filter mats using Filtermate harvester. Scintilation cocktail is then melted onto microwave-dried filters on a hot plate and the radio activity is counted in Microbia counter.
In assay [10] the target is 5-hydroxytryptamine receptor 5A (Homo sapiens) (UniProt P47898).
5-hydroxytryptamine receptor 5A (Homo sapiens), sequence (P47898 whole entry): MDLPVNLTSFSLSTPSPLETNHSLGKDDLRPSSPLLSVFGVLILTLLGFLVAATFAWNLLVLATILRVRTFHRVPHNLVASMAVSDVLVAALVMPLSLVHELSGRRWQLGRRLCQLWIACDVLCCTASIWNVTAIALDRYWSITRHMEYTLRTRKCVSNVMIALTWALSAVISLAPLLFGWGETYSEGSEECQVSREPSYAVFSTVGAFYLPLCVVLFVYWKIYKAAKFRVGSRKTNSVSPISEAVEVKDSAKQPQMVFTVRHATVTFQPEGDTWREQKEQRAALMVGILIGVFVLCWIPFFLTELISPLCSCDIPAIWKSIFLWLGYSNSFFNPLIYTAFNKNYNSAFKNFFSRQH
Description: PDSP Primary Binding target: HTR5A - Compounds are tested at 10 uM concentration, plate are incubated at room temperature in the dark for 90 minutes. Reaction are stopped by vacuum filtration onto 0.3% polyethyleneimine soaked filter mats using Filtermate harvester. Scintilation cocktail is then melted onto microwave-dried filters on a hot plate and the radio activity is counted in Microbia counter.
The target in assay [11] is T3, Muscarinic acetylcholine receptor M4 (Homo sapiens) (UniProt P08173).
T3 sequence (whole entry): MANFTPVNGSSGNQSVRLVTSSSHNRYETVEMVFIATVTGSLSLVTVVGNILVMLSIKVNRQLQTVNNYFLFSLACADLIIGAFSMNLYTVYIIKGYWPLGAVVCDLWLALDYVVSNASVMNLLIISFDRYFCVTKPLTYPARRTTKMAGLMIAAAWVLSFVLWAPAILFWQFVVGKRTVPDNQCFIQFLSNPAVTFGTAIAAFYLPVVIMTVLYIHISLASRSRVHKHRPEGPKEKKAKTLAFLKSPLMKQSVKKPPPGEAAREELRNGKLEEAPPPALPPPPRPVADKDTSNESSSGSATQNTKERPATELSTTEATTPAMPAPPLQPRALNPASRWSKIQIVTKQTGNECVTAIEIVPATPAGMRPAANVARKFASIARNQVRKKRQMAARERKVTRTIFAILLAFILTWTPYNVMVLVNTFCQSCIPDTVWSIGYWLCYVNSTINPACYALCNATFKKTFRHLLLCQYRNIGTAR
Description: PDSP Primary Binding target: CHRM4 - Compounds are tested at 10 uM concentration, plate are incubated at room temperature in the dark for 90 minutes. Reaction are stopped by vacuum filtration onto 0.3% polyethyleneimine soaked filter mats using Filtermate harvester. Scintilation cocktail is then melted onto microwave-dried filters on a hot plate and the radio activity is counted in Microbia counter.

Assay [12] concerns the target T4, Muscarinic acetylcholine receptor M5 (Homo sapiens) (UniProt P08912).
T4 sequence (whole entry): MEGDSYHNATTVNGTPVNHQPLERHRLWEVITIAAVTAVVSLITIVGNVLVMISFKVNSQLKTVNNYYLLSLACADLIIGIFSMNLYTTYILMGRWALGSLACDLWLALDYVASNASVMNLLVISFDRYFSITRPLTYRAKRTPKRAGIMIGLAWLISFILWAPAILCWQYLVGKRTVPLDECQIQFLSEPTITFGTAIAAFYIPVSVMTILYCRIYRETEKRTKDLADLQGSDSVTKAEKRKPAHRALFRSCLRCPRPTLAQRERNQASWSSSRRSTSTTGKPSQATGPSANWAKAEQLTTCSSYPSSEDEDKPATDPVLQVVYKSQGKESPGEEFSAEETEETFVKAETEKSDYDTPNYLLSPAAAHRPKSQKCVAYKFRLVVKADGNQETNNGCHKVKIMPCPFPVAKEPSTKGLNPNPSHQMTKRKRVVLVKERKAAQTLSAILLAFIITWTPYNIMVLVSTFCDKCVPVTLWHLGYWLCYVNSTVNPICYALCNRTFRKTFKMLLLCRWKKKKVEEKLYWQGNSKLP
Description: PDSP Primary Binding target: CHRM5 - Compounds are tested at 10 uM concentration, plate are incubated at room temperature in the dark for 90 minutes. Reaction are stopped by vacuum filtration onto 0.3% polyethyleneimine soaked filter mats using Filtermate harvester. Scintilation cocktail is then melted onto microwave-dried filters on a hot plate and the radio activity is counted in Microbia counter.

Beta-1 adrenergic receptor (Homo sapiens), sequence (P08588 whole entry, looked up): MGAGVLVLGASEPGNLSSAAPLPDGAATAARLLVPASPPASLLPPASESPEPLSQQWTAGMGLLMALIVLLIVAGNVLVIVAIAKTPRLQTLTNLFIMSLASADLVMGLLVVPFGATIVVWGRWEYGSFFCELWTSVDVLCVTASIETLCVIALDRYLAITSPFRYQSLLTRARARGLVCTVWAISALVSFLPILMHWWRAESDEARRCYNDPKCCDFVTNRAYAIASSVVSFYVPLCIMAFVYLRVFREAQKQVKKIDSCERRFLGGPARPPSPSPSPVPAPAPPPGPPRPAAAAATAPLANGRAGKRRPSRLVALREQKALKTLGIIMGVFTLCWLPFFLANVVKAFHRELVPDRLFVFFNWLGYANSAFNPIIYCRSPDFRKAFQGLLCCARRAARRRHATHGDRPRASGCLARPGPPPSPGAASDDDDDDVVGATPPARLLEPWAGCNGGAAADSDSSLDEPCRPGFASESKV
Histamine H3 receptor (Homo sapiens), sequence (Q9Y5N1 whole entry): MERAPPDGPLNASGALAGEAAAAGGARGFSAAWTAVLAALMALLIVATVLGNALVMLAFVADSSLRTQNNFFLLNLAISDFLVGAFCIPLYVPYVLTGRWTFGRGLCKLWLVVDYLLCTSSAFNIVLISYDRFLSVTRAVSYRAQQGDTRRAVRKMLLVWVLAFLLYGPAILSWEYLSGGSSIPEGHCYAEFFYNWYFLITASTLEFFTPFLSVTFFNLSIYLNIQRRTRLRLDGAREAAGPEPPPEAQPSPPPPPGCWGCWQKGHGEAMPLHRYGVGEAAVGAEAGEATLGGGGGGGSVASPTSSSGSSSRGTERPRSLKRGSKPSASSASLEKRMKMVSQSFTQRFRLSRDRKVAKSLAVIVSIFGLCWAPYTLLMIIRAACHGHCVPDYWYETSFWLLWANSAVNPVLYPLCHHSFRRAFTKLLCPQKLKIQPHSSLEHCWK

For the compound `Brc1c(NC2=NCCN2)ccc2nccnc12`, the inhibition is 75.6% in assay [1]; 23.8% in [2]; -2.59% in assay [3]; 19.2% in [4]; -7.41% in assay [5].
Take `O=C1N/C(=N/c2ccccc2F)S/C1=C\c1ccc(C(=O)O)cc1`: the inhibition is -7.72% in assay [6]; 2.98% in assay [1]; 9.47% in assay [2]; -4.18% in assay [7]; 4.25% in assay [8]; 24.9% in [3]. Also, the figures for the inhibition in assay [9], in [4] and in assay [5] were 17.9%, 9.3% and 4.31%, respectively.
Consider `CCCn1c(=O)c2nc(C34CC5CC(CC3C5)C4)[nH]c2n(CCC)c1=O`, for which the inhibition in assay [6] is 6.22%; in [1], 9.01%; in assay [7], -9.29%; in assay [8], 14.2%; in assay [3], -4.94%; in assay [9] it was 32.7%. Also, in [5], the inhibition was 25.5%.
For the compound `Cc1cc(C)c(N)c(C#Cc2cccc(F)c2)n1`, the inhibition in [6] is 12.9%; in assay [1], 13.5%; in assay [2], -7.35%; in [7], -8.58%; in assay [8], 20.1%; in [10], -5.73%. Besides, the inhibition in assay [3] was 16.2%; in assay [9], 3.28%; in assay [4] it was 65.2%; in [5], 39.6%.
Turning to `CCC(=O)NCC[C@@H]1CCc2ccc3c(c21)CCO3`, the inhibition in assay [6] was 22%; in assay [1], -9.25%; in assay [2], 28.5%; in assay [11], -2.55%; in assay [8], -5.33%; in assay [10], 21.8%. Also, the inhibition in assay [9] is 89.6%; in [4], 18%; in assay [5], 27.6%.
Consider `CNC[C@H](O)c1ccc(O)c(O)c1`, for which the inhibition is 66.7% in assay [1]; 37% in [2]; -5.3% in assay [8]; -0.93% in assay [10]; -0.39% in [5].
Regarding `CCc1nn2c(C)cc(C)nc2c1Cc1ccc(-c2nnc(C3CCNCC3)o2)cc1`, the inhibition is 27.4% in [6]; 31.1% in [1]; -6.08% in assay [2]; -6.61% in assay [11]; -8.3% in [7]; 12.6% in assay [8]. Moreover, the inhibition is 3.02% in assay [10], 14.4% in [3], 52.4% in assay [9] and -8.38% in [4].
For `Clc1cccc(Cl)c1NC1=NCCN1`, the inhibition in assay [1] was 84.7%; in [2], 31.6%; in assay [11], -8.53%; in [12] it was 0.71%; in assay [8] it was 9.4%; in assay [10], 20.1%. Also, the values for the inhibition in assay [4] and in [5] were 20.9% and 10.8%, respectively.
With `COc1ccc2[nH]cc(CCNC(C)=O)c2c1`, the inhibition in [2] is 12%; in assay [7], -7.94%; in assay [9] it was 29.1%; in assay [4], -9.78%.
As to `CC1CCN(CC[C@H]2CCCN2S(=O)(=O)c2cccc(O)c2)CC1`, the inhibition was 51% in assay [6]; 51.5% in assay [1]; 9.71% in assay [2]; 8.85% in [11]; 1.99% in assay [12]; -4.13% in assay [7]. Also, the inhibition is 7.28% in assay [8]; 91.7% in [10]; -8.64% in assay [9]; 30.6% in [4]; -7.14% in assay [5].
For the compound `O=C(O)COc1cccc(CN(Cc2ccc(-n3cccn3)cc2)S(=O)(=O)c2cccnc2)c1`, the inhibition was -5.85% in assay [6]; -2.57% in [1]; -2.13% in [11]; -5.22% in assay [12]; 6.23% in assay [7]; 14.9% in assay [8]. Besides, the inhibition in assay [3] is -0.81%; in assay [9], 5.04%; in [5] it was 11.1%.
As for `COC(=O)[C@H]1[C@H]2C[C@H]3c4[nH]c5ccccc5c4CCN3C[C@H]2CC[C@@H]1O`, the inhibition was 98.7% in [1]; 6.36% in assay [2]; -4.59% in [11]; 4.29% in assay [12]; 7.16% in [7]; 96% in [8]. Moreover, the inhibition was 48.2% in [10]; 85.3% in assay [3]; 63.2% in assay [9]; 43.4% in assay [4]; 7.14% in assay [5].
As for `N#Cc1c(N)nc(SCc2csc(-c3ccc(Cl)cc3)n2)c(C#N)c1-c1ccc(OCCO)cc1`, the inhibition in assay [6] is 2.13%; in [1] it was 3.52%; in [2], 26.8%; in assay [11], -8.79%; in assay [7], 5.12%; in assay [8], -9.34%. In addition, the inhibition was -4.31% in assay [10], 39% in assay [9], 33.5% in assay [4] and 57.6% in assay [5].
Take `C[C@]1(C(=O)N(CCCC(=O)O)Cc2cccc(Cl)c2)CCN1C(=O)c1csc2ccccc12`: the inhibition in assay [6] is 13.3%; in assay [2], 1.62%; in assay [11] it was 27.1%; in assay [12], -2.06%; in [7], -8.42%; in assay [8], -8.85%. For the same compound, the inhibition in assay [10] was -1.31%; in assay [3] it was 3.68%; in assay [9], 32.5%; in assay [5], 5.72%.
As for `CC(C)(C(=O)O)c1ccc(C(O)CCCN2CCC(C(O)(c3ccccc3)c3ccccc3)CC2)cc1` (stereo not given), the inhibition in assay [1] is -7.6%; in assay [11] it was -3.2%; in assay [7], -3.95%; in [8] it was -8.04%; in assay [3], -8.41%; in [9], 35.9%. Also, the inhibition in assay [5] was -4.11%.

Usually inhibition stands for the change of the read-out against control, counted positive when it falls.
